Source: patent US10570179B2, “Substituted urea depsipeptide analogs as activators of the CLPP endopeptidase” (priority 2016, dated 2020)
In brackets after ≈: the same amount, converted by molar mass. Numbered stars: 1 amine (or outer) side, 2 acyl side, 3 side chain; on linkers, the order of the positions; unused ones are H or OH. Bridge positions count the residues as written; N and C are the ends. Square brackets hold non-standard residues; d marks the D form. Peptide text beside a SMILES is read from it. * marks the point of attachment. Piperazine(2S-CO,4-Me) = CN1CCN[C@H](C(=O)O)C1; Phe(3-Cl) = N[C@@H](Cc1cccc(Cl)c1)C(=O)O; Morpholine(3S-CO) = O=C(O)[C@@H]1COCCN1; Phe(3-Me) = Cc1cccc(C[C@H](N)C(=O)O)c1; X4 = O=C1CN([*:1])[C@H](C(=O)[*:2])CN1; NH(4-Cl-2-F-phenyl) = Fc1cc(Cl)ccc1N*; Pro(4R-Me) = C[C@H]1CN[C@H](C(=O)O)C1; Propanoyl(3-NMe2) = CN(C)CCC(=O)*; X1 = O=C([C@@H]1CSCCN1[*:1])[*:2]; Hyp = O=C(O)[C@@H]1C[C@@H](O)CN1; NH(4-Et-phenyl) = CCc1ccc(N*)cc1; aThr = C[C@H](O)[C@H](N)C(=O)O; Pip = O=C(O)[C@@H]1CCCCN1; X3 = c1cc2c(cc1N*)OCCO2; CO = O=C([*:1])[*:2]

Key:
[1] = Microsomal metabolic stability; format: in vitro ADME, human; conditions: human, pH 7.4
Description: Compounds were initially prepared by dissolving them into DMSO at a final concentration of 10 mM. NADPH regenerating solutions A and B and mouse liver microsomes (CD-1) were obtained from BD Gentest (Woburn, Mass.). Ninety-six well deep well plates were obtained from MidWest Scientific Inc (Valley Park, Mo.).
Sample preparation for microsomal stability was modified from methods of Di, L., et al., Int J Pharm. 2005 Jun. 13; 297(1-2):110-9. A set of incubation times of 0, 15, 30, 60, 120, and 240 minutes were used. Mouse liver microsomal solutions were prepared by adding 58 μL of concentrated human or mouse liver microsomes (20 mg/mL protein concentration) to 1.756 mL of 0.1 M potassium phosphate buffer (pH 7.4) and 5 μL of 0.5 M EDTA to make a 0.6381 mg/mL (protein) microsomal solution. NADPH regenerating agent contained 113 μL of NADPH A, 23 μL of NADPH B, and 315 μL of 0.1 M potassium phosphate buffer (pH 7.4). The diluted test compound solutions (2 μL) were each added directly to a 1.79 mL of liver microsomal solution. This solution was mixed and 90 μL was transferred to 6 time points plates (each in triplicate wells). For the time 0 plate, 225 μL of cold acetonitrile with internal standard ([…] warfarin) was added to each well, followed by addition of NADPH regenerating agent (22.5 μL) and no incubation. For other five time points' plate, NADPH regenerating agent (22.5 μL) was added to each well to initiate the reaction. The plates were incubated at 37° C. for the required time, followed by quenching of the reaction by adding 225 μL of cold acetonitrile with internal standard (4 μg/ml warfarin). All of the plates were sealed and mixed well at 600 rpm for 10 minutes followed by centrifugation at 4000 rpm for 20 minutes. The supernatants (120 μL) were transferred to analytical plates for analysis by LCMS. LCMS conditions were described in the materials and instrumentation section above. The metabolic stability is evaluated via the half-life from least-squares fit of the multiple time points based on first-order kinetics.

Solubility determination = format: physicochemical; conditions: for solubility kinetic at 10 min: 22 °C, aqueous buffer, kinetic from dmso stock
Description: Test compounds were synthesized and supplied by the Department of Chemical Biology and Therapeutics at St. Jude Children's Research Hospital (Memphis, Tenn.). LC-MS chromasolv grade acetonitrile (ACN) was purchased from Fisher Scientific (Loughborough, UK). LC-MS chromasolv grade formic acid was obtained from Sigma-Aldrich (St. Louis, Mo.). Milli-Q water as an ultrapure laboratory grade water was used in aqueous mobile phase.
Chromatographic separation was performed on an Acquity UPLC BEH C18 1.7 μm, 2.1×50 mm column (Waters Corporation, Milford, Mass.) using an Acquity ultra performance liquid chromatography system. The total flow rate was 0.9 mL/min. The sample injection volume was 10 μL. The UPLC column was maintained at 60° C. and the gradient program started at 90% A (0.1% formic acid in MilliQ H2O), changed to 70% A over 0.2 min, to 95% B (0.1% formic acid in ACN) over 1.4 minutes, held for 0.35 minutes, then to 90% A over 0.05 minutes.
Mass data was acquired with an Acquity SQD Mass Spectrometer. The mass spectrometer was operated in positive-ion mode with electrospray ionization. The conditions were as follows: capillary voltage 3.5 kV, cone voltage 30 V, source temperature 150° C., desolvation temperature 350° C., desolvation gas 500 L/hr, cone gas 25 L/hr. Data were acquired using Masslynx v. 4.1 and analyzed using the Quanlynx software suite. A full scan range from m/z=100-1000 in 0.2 s was used to acquire MS data. Both UV and Single ion recording mass spectrometry were used to determine the quantification of the samples.
Stock solutions were prepared by dissolving compounds into DMSO to yield a concentration of 10 mM. Stock solutions were stored at room temperature.
Calibration standards were made by adding stock solutions to DMSO for final concentrations of compounds at concentration of 100, 25, 6.25, 1.563, 0.391 and 0.098 μM.
Solubility test samples were made by adding stock solutions to 200 μL, of DPBS for final concentrations of compounds at 100 μM in a 96-well analytical plate (300 μL, maximum volume in each well). Samples were tested in triplicates. The plate was sealed, shaken at 600 rpm for 10 minutes, and then was centrifuged at 4000 rpm for 20 min at 22° C. 100 μL, of the supernatant was transferred to a new analytical 96-well plate and 10 μL, was injected onto the LCMS system.
Two calibration curves for solubility test samples were analyzed during the quantitation process. The linear regression of test compound peak areas was weighted by 1/x^2. […] Coefficient of determination (R^2) was used to evaluate the linearity of each calibration curve.

Plasma stability assay = format: in vitro ADME, mouse; conditions: mouse, 10 μM
Description: The plasma stability property of early drug discovery compounds can influence the in vivo efficacy of the test compounds/drugs. Human and/or mouse plasma degradation is determined using multiple time points to monitor the rate of disappearance of the parent compound during incubation.
Sample preparation for plasma stability was modified from Di et al. (2005) Int. J. Pharm. 297(1-2): 110-119. A set of incubation times of 0, 3, 24, and 48 hour were used. DMSO stock solutions of test compounds were prepared at 10 mM concentration. 1.8 μL of each test compound was each added directly to 1.8 mL of human/mouse plasma to get the final concentration of 10 μM. This compound/matrix was mixed and 70 μL was transferred to 8 time points plates (each in triplicate wells). For the Time 0 plate, 210 μL of cold acetonitrile with internal standard (4 μg/mL warfarin) was added to each well and no incubation needed. For other seven time points' plate, the plate was incubated at 37° C. for required time, followed by quenching of the reaction by adding 210 μL of cold acetonitrile with internal standard (4 μg/ml warfarin) to each well. All of the plates were sealed and mixed well at 600 rpm for 10 min and were centrifuged at 4000 rpm for 20 min. The supernatants (120 μL) were transferred to analytical plates for analysis by LCMS. Conditions for Waters ACQUITY-UPLC-MS-UV system was described separately. The plasma stability was evaluated via the half-life from least-squares fit of the multiple time points based on first-order kinetics.

## Cc1cccc(C[C@H](NC(=O)Nc2ccc(Cl)cc2F)C(=O)N[C@@H]2C(=O)N3C[C@H](OC(=O)CCN(C)C)C[C@H]3C(=O)N3CCCC[C@H]3C(=O)N[C@@H](C)C(=O)N3C[C@H](C)C[C@H]3C(=O)O[C@H]2C)c1 [Compound 46, (2R,6S,8AS,14AS,16R,20S,21S,23AS)-20-((S)-2-(3-(4-CHLORO-2-FLUOROPHENYL)UREIDO)-3-(M-TOLYL)PROPANAMIDO)-2,6,21-TRIMETHYL-5,8,14,19,23-PENTAOXOOCTADECAHYDRO-1H,5H,14H,19H-PYRIDO[2,1-I]DIPYRROLO[2,1-C:2′,1′-L][1]OXA[4,7,10,13]TETRAAZACYCLOHEXADECIN-16-YL 3-(DIMETHYLAMINO)PROPANOATE] ({NH(4-Cl-2-F-phenyl)-CO}-[Phe(3-Me)][aThr][Hyp](Propanoyl(3-NMe2))[Pip]A[Pro(4R-Me)]; ester 2-C)
[1]
  Human – 2.09 ± 0.14 h
Solubility determination
  μsol (μM): 12.1 ± 1.5 µM
  solubility kinetic at 10 min: 195 ± 27 µM (≈ 183 µg/mL)
Plasma stability assay
  Mouse: 0.49 h

## Cc1cccc(C[C@H](NC(=O)Nc2ccc3c(c2)OCCO3)C(=O)N[C@@H]2C(=O)N3C[C@H](O)C[C@H]3C(=O)N3CCOC[C@H]3C(=O)N[C@@H](C)C(=O)N3C[C@H](C)C[C@H]3C(=O)O[C@H]2C)c1 [Compound 27, (S)-2-(3-(2,3-DIHYDROBENZO[B][1,4]DIOXIN-6-YL)UREIDO)-N-((6AS,8R,12S,13S,15AS,17R,21S,23AS)-8-HYDROXY-13,17,21-TRIMETHYL-6,11,15,20,23-PENTAOXOOCTADECAHYDRO-6H,11H,15H-[1,4]OXAZINO[3,4-I]DIPYRROLO[2,1-C:2′,1′-L][1]OXA[4,7,10,13]TETRAAZACYCLOHEXADECIN-12-YL)-3-(M-TOLYL)PROPANAMIDE] ({X3-CO}-[Phe(3-Me)][aThr][Hyp][Morpholine(3S-CO)]A[Pro(4R-Me)]; ester 2-C)
[1]
  Human – 0.49 ± .495 h
Solubility determination
  solubility kinetic at 10 min: 45.6 ± 5.6 µM (≈ 38.7 µg/mL)
Plasma stability assay
  Mouse: >50 h

## Cc1cccc(C[C@H](NC(=O)Nc2ccc(Cl)cc2F)C(=O)N[C@@H]2C(=O)N3CCC[C@H]3C(=O)N3CCSC[C@H]3C(=O)N[C@@H](C)C(=O)N3C[C@H](C)C[C@H]3C(=O)O[C@H]2C)c1 [Compound 38, (S)-2-(3-(4-CHLORO-2-FLUOROPHENYL)UREIDO)-3-(M-TOLYL)-N-((6AS,12S,13S,15AS,17R,21S,23AR)-13,17,21-TRIMETHYL-6,11,15,20,23-PENTAOXOOCTADECAHYDRO-6H,11H,15H-DIPYRROLO[2,1-C:2′,1′-L][1,4]THIAZINO[3,4-I][1]OXA[4,7,10,13]TETRAAZACYCLOHEXADECIN-12-YL)PROPANAMIDE] ({NH(4-Cl-2-F-phenyl)-CO}-[Phe(3-Me)][aThr]P[X1]A[Pro(4R-Me)]; ester 2-C)
[1]
  Human – 1.00 ± .003 h
Solubility determination
  μsol (μM): 1.7 ± .70 µM
  solubility kinetic at 10 min: 0.011 ± 0.011 µM (≈ 0.00927 µg/mL)
Plasma stability assay
  Mouse: >50 h

## Cc1cccc(C[C@H](NC(=O)Nc2ccc(Cl)cc2F)C(=O)N[C@@H]2C(=O)N3CCC[C@H]3C(=O)N3CC(=O)NC[C@H]3C(=O)N[C@@H](C)C(=O)N3C[C@H](C)C[C@H]3C(=O)O[C@H]2C)c1 [Compound 20, (S)-2-(3-(4-CHLORO-2-FLUOROPHENYL)UREIDO)-3-(M-TOLYL)-N-((6AS,12S,13S,15AS,17R,21S,23AS)-13,17,21-TRIMETHYL-3,6,11,15,20,23-HEXAOXOOCTADECAHYDRO-2H,6H,11H,15H-PYRAZINO[2,1-I]DIPYRROLO[2,1-C:2′,1′-L][1]OXA[4,7,10,13]TETRAAZACYCLOHEXADECIN-12-YL)PROPANAMIDE] ({NH(4-Cl-2-F-phenyl)-CO}-[Phe(3-Me)][aThr]P[X4]A[Pro(4R-Me)]; ester 2-C)
[1]
  Human – 1.30 ± 0.09 h
Solubility determination
  μsol (μM): 29.9 ± 1.5 µM
  solubility kinetic at 10 min: 34.4 ± 1.1 µM (≈ 28.9 µg/mL)
Plasma stability assay
  Mouse: 13.2 h

## CCc1ccc(NC(=O)N[C@@H](Cc2cccc(C)c2)C(=O)N[C@@H]2C(=O)N3C[C@H](O)C[C@H]3C(=O)N3CCCC[C@H]3C(=O)N[C@@H](C)C(=O)N3C[C@H](C)C[C@H]3C(=O)O[C@H]2C)cc1 [Compound 25, (S)-2-(3-(4-ETHYLPHENYL)UREIDO)-N-((2R,6S,8AS,14AS,16R,20S,21S,23AS)-16-HYDROXY-2,6,21-TRIMETHYL-5,8,14,19,23-PENTAOXOOCTADECAHYDRO-1H,5H,14H,19H-PYRIDO[2,1-I]DIPYRROLO[2,1-C:2′,1′-L][1]OXA[4,7,10,13]TETRAAZACYCLOHEXADECIN-20-YL)-3-(M-TOLYL)PROPANAMIDE] ({NH(4-Et-phenyl)-CO}-[Phe(3-Me)][aThr][Hyp][Pip]A[Pro(4R-Me)]; ester 2-C)
[1]
  Human – 15.19 ± 2.47 h
Solubility determination
  μsol (μM): 9.0 ± 0.3 µM
  solubility kinetic at 10 min: 18.6 ± 1.17 µM (≈ 15.2 µg/mL)
Plasma stability assay
  Mouse: >50 h

## C[C@@H]1C[C@H]2C(=O)O[C@@H](C)[C@H](NC(=O)[C@H](Cc3cccc(Cl)c3)NC(=O)Nc3ccc(Cl)cc3F)C(=O)N3CCC[C@H]3C(=O)N3CCN(C)C[C@H]3C(=O)N[C@@H](C)C(=O)N2C1 [Compound 33] ({NH(4-Cl-2-F-phenyl)-CO}-[Phe(3-Cl)][aThr]P[Piperazine(2S-CO,4-Me)]A[Pro(4R-Me)]; ester 2-C)
[1]
  Human – 9.25 ± .255 h
Solubility determination
  μsol (μM): 17.2 ± 7.2 µM
  solubility kinetic at 10 min: 12.8 ± 2.8 µM (≈ 11 µg/mL)
Plasma stability assay
  Mouse: >50 h
